From US5716934A, “Eck receptor ligands” (Amgen Inc., priority 1995, dated 1998)

What was measured:
[1] = system: immobilized soluble extracellular domain of eck; assay: Stability of eck binding activity of formulated EBP (BIAcore); type: physicochemical, human; conditions: diluted into PBS to 100 μg/ml, 2 hours at 3° C., no detergent
Method: FIG. 7. Binding of CHO-derived EBP in various detergent formulations to immobilized eck receptor as measured by BIAcore. Purified EBP was diluted to 100 μg/ml in PBS in the presence or absence of detergent and incubated for 2 hrs. at 3° C. Protein samples were diluted to the concentrations indicated in the figure and tested for eck receptor binding.
Measuring the ability of EBP to bind to the immobilized soluble extracellular domain of eck using BIAcore, it was determined that dilute solutions of purified EBP rapidly lost the ability to bind to the eck receptor unless formulated with a protective agent such as a detergent. Recombinant CHO EBP diluted into PBS to 100 μg/ml and incubated for 2 hours at […] lost approximately 50% of its eck binding activity. […] (see FIG. 7).

[2] = system: granulation tissue in subcutaneously implanted wound chambers; assay: Rat wound chamber assay (granulation tissue formation); type: in vivo; conditions: for DNA / HYDROXY-PROLINE / TOTAL GYLCOSAMINO-GLYCANS / TOTAL PROTEIN / WET WEIGHT: harvest day 12, mean ± SEM; for increase in hydroxyproline: not statistically significant
Method: Male Sprague-Dawley specific pathogen free rats (300-350 g; Charles River Breeding Laboratories, Inc.) were used for this study. Rats were anesthetized with sodium pentobarbital (50 mg/kg body weight) by intraperitoneal injection. Using aseptic surgical technique, a 3 cm midline incision was made on the dorsal surface of the rat. A single pocket was formed under the panniculus carnosis by blunt dissection on one side of the animal. A 3 cm long×1 cm diameter sterile stainless steel wire mesh cylinder was then inserted subcutaneously. The wound chambers used were similar to those described by Schilling et. al. (Surgery 46, 702-710 (1959)) and utilized by Hunt et. al. (Am. J. Surg. 114, 302-307 (1967)) as wound healing models. The incision was closed with wound clips. The rats survived the operation well with no evidence of postoperative discomfort. Beginning 3 days after wound chamber implantation, the rats were randomly divided into 5 groups. At this time daily injections of 1) 10 μg CHO-derived EBP, 2) 1 μg CHO-derived EBP, 3) 8 μg E. coli derived EBP, 4) 5 μg recombinant platelet derived growth factor (PDGF), or 5) 0.1 ml sterile PBS and 1 mM CHAPS were begun and continued for a total of 9 days. The injections were made directly into the wound chamber through a silicone septum at the outer edge of the chamber. Twelve days after chamber implantation, the rats were sacrificed by CO2 asphyxiation. Immediately after sacrifice, the chambers were removed surgically and carefully opened. The enclosed granulation tissue was then weighed, and stored at -70° C. for future processing.
Granulation tissue samples were thawed and homogenized with a Polytron homogenizer in 2 ml of ice-cold distilled water for approximately 1 minute. Next, 2 ml of ice-cold 10% trichloroacetic acid was added to the homogenate and incubated at 4° C. for 1 hour. The TCA-precipitated samples were centrifuged (500 g, 10 minutes) at 4° C., washed once with 2 ml of ice-cold 5% TCA, and finally washed with 2 ml of ice-cold 95% ethanol containing 50 mM sodium acetate. Samples were defatted twice with 2 ml of ethanol:ether (3:1, v/v) at 20° C. After each defatting procedure, samples were centrifuged (500×g, 10 minutes) and the supernate discarded. The pellet was then dissolved in 1N sodium hydroxide and brought up to a volume of 10 ml.
Total protein was determined by taking an aliquot of the solubilized granulation tissue and assaying the sample according to the method of Bradford (Anal. Biochem. 72, 248-251 (1976)) Bovine serum albumin (Sigma Chemical Co., St. Louis, Mo.) was used for a protein standard curve.
Total DNA content was determined as deoxy-ribose by the colorimetric method of Burton (Biochem. J. 62, 315 (1956)). Briefly, a 1 ml aliquot of the solubilized sample (in 1N NaOH) was neutralized with the addition of 0.5 ml of 2N HCl. A 1 ml aliquot of the neutralized solution was extracted in 10% perchloric acid at 90° C. for 15 minutes. A 1 ml portion of the final extract was added to 2 ml activated diphenylamine (Sigma Chemical, St. Louis, Mo.) reagent and absorbance at 600 nm was measured after overnight incubation at room temperature. Hydrolyzed calf thymus DNA (Sigma) was used to construct the standard curve. The DNA content was measured as a rough index of the number of cells in the wound chamber, with the realization that cell type and cell cycle status also influence DNA content.
Total glycosaminoglycans (GAGs) were determined using chondroitin sulfate as a standard. A spectrophotometric assay for GAGs was run utilizing a change in absorption spectrum of the dye 1,9- dimethyl methylene blue (Farndale et al. Conn. Tiss. Res. 9, 247-248 (1982)).
Total collagen content was determined as hydroxyproline (an index of collagen content) after hydrolysis of the solubilized granulation tissue in 6N HCl at 110° C. for 24 hours. […]

[3] = 1 μg per chamber per day x 9 days
[4] = 1 μg per chamber per day x 9 days, listed as CHO-derived rEBP
[5] = 10 μg per chamber per day x 9 days
[6] = 10 μg per chamber per day x 9 days, listed as CHO-derived rEBP

In the case of “CHO-EBP: recombinant EBP purified from supernatants of CHO cells transfected with the EBP gene; mainly EBP^1-150 and EBP^1-159”, the “loss of eck binding activity” value [1] is reported as “approximately 50%”, the DNA [2, 3] is reported as 232 ± 41 µg and the HYDROXY-PROLINE [2, 3] is reported as 318.7 ± 31.7 µg. For the same substance, the “TOTAL GYLCOSAMINO-GLYCANS” value [2, 3] was 589.2 ± 68.4 µg, the “TOTAL PROTEIN” value [2, 3] was 3.88 ± 0.44 mg and the “WET WEIGHT” value [2, 3] was 238.0 ± 24.1 mg. For the same substance, the DNA [2, 4] was “no significant differences”, the HYDROXY-PROLINE [2, 4] was “no significant differences” and the “TOTAL GYLCOSAMINO-GLYCANS” value [2, 4] was “significant increase”. The “TOTAL PROTEIN” value [2, 4] was “no significant differences”, the “WET WEIGHT” value [2, 4] was “significant increase” and the increase in hydroxyproline ([2]; 1 μg/chamber/day) was 21%. For the same substance, the DNA [2, 5] was 650 ± 163 µg, the HYDROXY-PROLINE [2, 5] was 354.5 ± 63.7 µg and the “TOTAL GYLCOSAMINO-GLYCANS” value [2, 5] was 627.9 ± 92.4 µg. The “TOTAL PROTEIN” value [2, 5] was 7.15 ± 1.23 mg, the “WET WEIGHT” value [2, 5] was 398.2 ± 70.9 mg and the DNA [2, 6] was “significantly increased”. For the same substance, the “TOTAL GYLCOSAMINO-GLYCANS” value [2, 6] was “significantly increased”, the “TOTAL PROTEIN” value [2, 6] was “significantly increased” and the “WET WEIGHT” value [2, 6] was “significantly increased”. The increase in hydroxyproline ([2]; 10 μg/chamber/day) was 35%.
